Patent publication US9113629B2, “4-amino-6-(4-substituted-phenyl)-picolinates and 6-amino-2-(4-substituted-phenyl)-pyrimidine-4-carboxylates and their use as herbicides” (DOW AGROSCIENCES LLC, priority 2013, dated 2015)

System: Key Broadleaf Weed and Crop Species
Assay: Post-emergent Test II herbicidal activity (Table 5)
Format: in vivo
Conditions: post-emergence, 336 h; ABUTH: velvetleaf (Abutilon theophrasti); application rate 70 g ai/ha; 14 days after application; read-out: Visual Growth Reduction (%) 14 Days After Application, ABUTH
Summary of the method: (§1)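 Foliar application at 187 L/ha to greenhouse-grown seedlings (first or second true leaf); subirrigation thereafter. Visual 0–100% injury at 14 d relative to untreated plants.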

SMILES	pest or weed control at 70 g/ha [%]
COC(=O)c1nc(-c2ccc(C#N)c(F)c2F)c(F)c(N)c1Cl [Compound 160]	30 to 44

Same assay, conditions: post-emergence, 336 h; ABUTH: velvetleaf (Abutilon theophrasti); application rate 140 g ai/ha; 14 days after application; read-out: Visual Growth Reduction (%) 14 Days After Application, ABUTH

SMILES	pest or weed control at 140 g/ha [%]
COC(=O)c1nc(-c2ccc(C#N)c(F)c2F)c(F)c(N)c1Cl [Compound 160]	45 to 59

Same assay, conditions: post-emergence, 336 h; AMARE: redroot pigweed (Amaranthus retroflexus); application rate 70 g ai/ha; 14 days after application; read-out: Visual Growth Reduction (%) 14 Days After Application, AMARE

SMILES	pest or weed control at 70 g/ha [%]
COC(=O)c1nc(-c2ccc(C#N)c(F)c2F)c(F)c(N)c1Cl [Compound 160]	85 to 94

Same assay, conditions: post-emergence, 336 h; AMARE: redroot pigweed (Amaranthus retroflexus); application rate 140 g ai/ha; 14 days after application; read-out: Visual Growth Reduction (%) 14 Days After Application, AMARE

SMILES	pest or weed control at 140 g/ha [%]
COC(=O)c1nc(-c2ccc(C#N)c(F)c2F)c(F)c(N)c1Cl [Compound 160]	95 to 100

Same assay, conditions: post-emergence, 336 h; BRSNN: oilseed-rape, canola (Brassica napus); application rate 70 g ai/ha; 14 days after application; read-out: Visual Growth Reduction (%) 14 Days After Application, BRSNN

SMILES	pest or weed control at 70 g/ha [%]
COC(=O)c1nc(-c2ccc(C#N)c(F)c2F)c(F)c(N)c1Cl [Compound 160]	0 to 29

Same assay, conditions: post-emergence, 336 h; BRSNN: oilseed-rape, canola (Brassica napus); application rate 140 g ai/ha; 14 days after application; read-out: Visual Growth Reduction (%) 14 Days After Application, BRSNN

SMILES	pest or weed control at 140 g/ha [%]
COC(=O)c1nc(-c2ccc(C#N)c(F)c2F)c(F)c(N)c1Cl [Compound 160]	0 to 29

Same assay, conditions: post-emergence, 336 h; CHEAL: lambsquarters (Chenopodium album); application rate 70 g ai/ha; 14 days after application; read-out: Visual Growth Reduction (%) 14 Days After Application, CHEAL

SMILES	pest or weed control at 70 g/ha [%]
COC(=O)c1nc(-c2ccc(C#N)c(F)c2F)c(F)c(N)c1Cl [Compound 160]	60 to 74

Same assay, conditions: post-emergence, 336 h; CHEAL: lambsquarters (Chenopodium album); application rate 140 g ai/ha; 14 days after application; read-out: Visual Growth Reduction (%) 14 Days After Application, CHEAL

SMILES	pest or weed control at 140 g/ha [%]
COC(=O)c1nc(-c2ccc(C#N)c(F)c2F)c(F)c(N)c1Cl [Compound 160]	75 to 84

Same assay, conditions: post-emergence, 336 h; EPHHL: wild poinsettia (Euphorbia heterophylla); application rate 70 g ai/ha; 14 days after application; read-out: Visual Growth Reduction (%) 14 Days After Application, EPHHL

SMILES	pest or weed control at 70 g/ha [%]
COC(=O)c1nc(-c2ccc(C#N)c(F)c2F)c(F)c(N)c1Cl [Compound 160]	45 to 59

Same assay, conditions: post-emergence, 336 h; EPHHL: wild poinsettia (Euphorbia heterophylla); application rate 140 g ai/ha; 14 days after application; read-out: Visual Growth Reduction (%) 14 Days After Application, EPHHL

SMILES	pest or weed control at 140 g/ha [%]
COC(=O)c1nc(-c2ccc(C#N)c(F)c2F)c(F)c(N)c1Cl [Compound 160]	60 to 74

Same assay, conditions: post-emergence, 336 h; HELAN: sunflower (Helianthus annuus); application rate 70 g ai/ha; 14 days after application; read-out: Visual Growth Reduction (%) 14 Days After Application, HELAN

SMILES	pest or weed control at 70 g/ha [%]
COC(=O)c1nc(-c2ccc(C#N)c(F)c2F)c(F)c(N)c1Cl [Compound 160]	85 to 94

Same assay, conditions: post-emergence, 336 h; HELAN: sunflower (Helianthus annuus); application rate 140 g ai/ha; 14 days after application; read-out: Visual Growth Reduction (%) 14 Days After Application, HELAN

SMILES	pest or weed control at 140 g/ha [%]
COC(=O)c1nc(-c2ccc(C#N)c(F)c2F)c(F)c(N)c1Cl [Compound 160]	95 to 100

Same assay, conditions: post-emergence, 336 h; VIOTR: wild pansy (Viola tricolor); application rate 70 g ai/ha; 14 days after application; read-out: Visual Growth Reduction (%) 14 Days After Application, VIOTR

SMILES	pest or weed control at 70 g/ha [%]
COC(=O)c1nc(-c2ccc(C#N)c(F)c2F)c(F)c(N)c1Cl [Compound 160]	0 to 29

Same assay, conditions: post-emergence, 336 h; VIOTR: wild pansy (Viola tricolor); application rate 140 g ai/ha; 14 days after application; read-out: Visual Growth Reduction (%) 14 Days After Application, VIOTR

SMILES	pest or weed control at 140 g/ha [%]
COC(=O)c1nc(-c2ccc(C#N)c(F)c2F)c(F)c(N)c1Cl [Compound 160]	0 to 29

System: Key Grass and Sedge Weeds as well as Grass Crops
Assay: Post-emergent Test II herbicidal activity (Table 6)
Format: in vivo
Conditions: post-emergence, 336 h, CYPES: yellow nutsedge (Cyperus esculentus), 70 g ai/ha, read-out: Visual Growth Reduction (%) 14 Days After Application, CYPES
Summary of the method: as §1

SMILES	pest or weed control at 70 g/ha [%]
COC(=O)c1nc(-c2ccc(C#N)c(F)c2F)c(F)c(N)c1Cl [Compound 160]	0 to 29

Same assay, conditions: post-emergence, 336 h, CYPES: yellow nutsedge (Cyperus esculentus), 140 g ai/ha, read-out: Visual Growth Reduction (%) 14 Days After Application, CYPES

SMILES	pest or weed control at 140 g/ha [%]
COC(=O)c1nc(-c2ccc(C#N)c(F)c2F)c(F)c(N)c1Cl [Compound 160]	0 to 29

Same assay, conditions: post-emergence, 336 h, DIGSA: crabgrass (Digitaria sanguinalis), 70 g ai/ha, read-out: Visual Growth Reduction (%) 14 Days After Application, DIGSA

SMILES	pest or weed control at 70 g/ha [%]
COC(=O)c1nc(-c2ccc(C#N)c(F)c2F)c(F)c(N)c1Cl [Compound 160]	0 to 29

Same assay, conditions: post-emergence, 336 h, DIGSA: crabgrass (Digitaria sanguinalis), 140 g ai/ha, read-out: Visual Growth Reduction (%) 14 Days After Application, DIGSA

SMILES	pest or weed control at 140 g/ha [%]
COC(=O)c1nc(-c2ccc(C#N)c(F)c2F)c(F)c(N)c1Cl [Compound 160]	0 to 29

Same assay, conditions: post-emergence, 336 h, ECHCG: barnyardgrass (Echinochloa crus-galli), 70 g ai/ha, read-out: Visual Growth Reduction (%) 14 Days After Application, ECHCG

SMILES	pest or weed control at 70 g/ha [%]
COC(=O)c1nc(-c2ccc(C#N)c(F)c2F)c(F)c(N)c1Cl [Compound 160]	0 to 29

Same assay, conditions: post-emergence, 336 h, ECHCG: barnyardgrass (Echinochloa crus-galli), 140 g ai/ha, read-out: Visual Growth Reduction (%) 14 Days After Application, ECHCG

SMILES	pest or weed control at 140 g/ha [%]
COC(=O)c1nc(-c2ccc(C#N)c(F)c2F)c(F)c(N)c1Cl [Compound 160]	0 to 29

Same assay, conditions: post-emergence, 336 h, ORYSA: rice (Oryza sativa), crop, 70 g ai/ha, read-out: Visual Growth Reduction (%) 14 Days After Application, ORYSA

SMILES	pest or weed control at 70 g/ha [%]
COC(=O)c1nc(-c2ccc(C#N)c(F)c2F)c(F)c(N)c1Cl [Compound 160]	0 to 29

Same assay, conditions: post-emergence, 336 h, ORYSA: rice (Oryza sativa), crop, 140 g ai/ha, read-out: Visual Growth Reduction (%) 14 Days After Application, ORYSA

SMILES	pest or weed control at 140 g/ha [%]
COC(=O)c1nc(-c2ccc(C#N)c(F)c2F)c(F)c(N)c1Cl [Compound 160]	0 to 29

Same assay, conditions: post-emergence, 336 h, SETFA: giant foxtail (Setaria faberi), 70 g ai/ha, read-out: Visual Growth Reduction (%) 14 Days After Application, SETFA

SMILES	pest or weed control at 70 g/ha [%]
COC(=O)c1nc(-c2ccc(C#N)c(F)c2F)c(F)c(N)c1Cl [Compound 160]	0 to 29

Same assay, conditions: post-emergence, 336 h, SETFA: giant foxtail (Setaria faberi), 140 g ai/ha, read-out: Visual Growth Reduction (%) 14 Days After Application, SETFA

SMILES	pest or weed control at 140 g/ha [%]
COC(=O)c1nc(-c2ccc(C#N)c(F)c2F)c(F)c(N)c1Cl [Compound 160]	0 to 29

Same assay, conditions: post-emergence, 336 h, SORVU: grain sorghum (Sorghum vulgare), 70 g ai/ha, read-out: Visual Growth Reduction (%) 14 Days After Application, SORVU

SMILES	pest or weed control at 70 g/ha [%]
COC(=O)c1nc(-c2ccc(C#N)c(F)c2F)c(F)c(N)c1Cl [Compound 160]	0 to 29

Same assay, conditions: post-emergence, 336 h, SORVU: grain sorghum (Sorghum vulgare), 140 g ai/ha, read-out: Visual Growth Reduction (%) 14 Days After Application, SORVU

SMILES	pest or weed control at 140 g/ha [%]
COC(=O)c1nc(-c2ccc(C#N)c(F)c2F)c(F)c(N)c1Cl [Compound 160]	0 to 29

Same assay, conditions: post-emergence, 336 h, TRZSS (wheat, Triticum aestivum), crop, 70 g ai/ha, read-out: Visual Growth Reduction (%) 14 Days After Application, TRZSS

SMILES	pest or weed control at 70 g/ha [%]
COC(=O)c1nc(-c2ccc(C#N)c(F)c2F)c(F)c(N)c1Cl [Compound 160]	0 to 29

Same assay, conditions: post-emergence, 336 h, TRZSS (wheat, Triticum aestivum), crop, 140 g ai/ha, read-out: Visual Growth Reduction (%) 14 Days After Application, TRZSS

SMILES	pest or weed control at 140 g/ha [%]
COC(=O)c1nc(-c2ccc(C#N)c(F)c2F)c(F)c(N)c1Cl [Compound 160]	0 to 29

Same assay, conditions: post-emergence, 336 h, ZEAMX: maize, corn (Zea mays), crop, 70 g ai/ha, read-out: Visual Growth Reduction (%) 14 Days After Application, ZEAMX

SMILES	pest or weed control at 70 g/ha [%]
COC(=O)c1nc(-c2ccc(C#N)c(F)c2F)c(F)c(N)c1Cl [Compound 160]	0 to 29

Same assay, conditions: post-emergence, 336 h, ZEAMX: maize, corn (Zea mays), crop, 140 g ai/ha, read-out: Visual Growth Reduction (%) 14 Days After Application, ZEAMX

SMILES	pest or weed control at 140 g/ha [%]
COC(=O)c1nc(-c2ccc(C#N)c(F)c2F)c(F)c(N)c1Cl [Compound 160]	0 to 29

System: not given
Assay: not given
Conditions: not given

melting point [°C]	SMILES
163 to 164	COC(=O)c1nc(-c2ccc(C#N)c(F)c2F)c(F)c(N)c1Cl [Compound 160]
